Test results published in patent US8192962B2, “Processes for detecting toxic substances” (Daikin Industries, Ltd., priority 2001, dated 2012).

System: Energy system protein genes
Test: DNA chip mRNA expression in yeast, energy system protein genes (Table 4)
Format: cell-based, Saccharomyces cerevisiae S288C
Method in brief: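 Values are treated/untreated fluorescence ratios from a whole-genome yeast DNA chip hybridized over 12 hours at 65° C with Cy3- or Cy5-labelled cDNA from poly(A) mRNA. Log-phase S288C yeast in YPD at 25° C had received a single toxic chemical for two hours, dosed to slow growth without killing.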

manganese ethylenebis(dithiocarbamate) [(8)]
The level of expressed mRNA in the presence of chemical substance/The level of expressed mRNA in the absence of chemical substance (yeast gene YJR048W): 0.9 | The level of expressed mRNA in the presence of chemical substance/The level of expressed mRNA in the absence of chemical substance (yeast gene YJR121W, cells incubated two hours with the chemical substance): 0.7 | The level of expressed mRNA in the presence of chemical substance/The level of expressed mRNA in the absence of chemical substance (yeast gene YJR155W): 10.6 | The level of expressed mRNA in the presence of chemical substance/The level of expressed mRNA in the absence of chemical substance (yeast gene YKL016C, cells incubated two hours with the chemical substance): 1.6 | The level of expressed mRNA in the presence of chemical substance/The level of expressed mRNA in the absence of chemical substance (yeast gene YKL060C, cells incubated two hours with the chemical substance): 1.1 | The level of expressed mRNA in the presence of chemical substance/The level of expressed mRNA in the absence of chemical substance (yeast gene YKL141W, cells incubated two hours with the chemical substance): 0.8 | The level of expressed mRNA in the presence of chemical substance/The level of expressed mRNA in the absence of chemical substance (yeast gene YKL148C, cells incubated two hours with the chemical substance): 0.8 | The level of expressed mRNA in the presence of chemical substance/The level of expressed mRNA in the absence of chemical substance (yeast gene YKR009C, cells incubated two hours with the chemical substance): 0.9 | The level of expressed mRNA in the presence of chemical substance/The level of expressed mRNA in the absence of chemical substance (yeast gene YKR058W, cells incubated two hours with the chemical substance, 25° C., YPD medium): 1.5 | The level of expressed mRNA in the presence of chemical substance/The level of expressed mRNA in the absence of chemical substance (yeast gene YKR097W): 2.5 | The level of expressed mRNA in the presence of chemical substance/The level of expressed mRNA in the absence of chemical substance (yeast gene YLL041C, cells incubated two hours with the chemical substance): 0.8 | The level of expressed mRNA in the presence of chemical substance/The level of expressed mRNA in the absence of chemical substance (yeast gene YLR038C, cells incubated two hours with the chemical substance): 1.4 | The level of expressed mRNA in the presence of chemical substance/The level of expressed mRNA in the absence of chemical substance (yeast gene YLR044C, cells incubated two hours with the chemical substance): 0.7 | The level of expressed mRNA in the presence of chemical substance/The level of expressed mRNA in the absence of chemical substance (yeast gene YLR134W, cells incubated two hours with the chemical substance): 0.8 | The level of expressed mRNA in the presence of chemical substance/The level of expressed mRNA in the absence of chemical substance (yeast gene YLR258W, cells incubated two hours with the chemical substance): 0.9 | The level of expressed mRNA in the presence of chemical substance/The level of expressed mRNA in the absence of chemical substance (yeast gene YLR284C, cells incubated two hours with the chemical substance): 1.2 | The level of expressed mRNA in the presence of chemical substance/The level of expressed mRNA in the absence of chemical substance (yeast gene YLR295C, cells incubated two hours with the chemical substance, 25° C., YPD medium): 1.2 | The level of expressed mRNA in the presence of chemical substance/The level of expressed mRNA in the absence of chemical substance (yeast gene YLR304C, cells incubated two hours with the chemical substance): 0.6 | The level of expressed mRNA in the presence of chemical substance/The level of expressed mRNA in the absence of chemical substance (yeast gene YLR345W): 1.4 | The level of expressed mRNA in the presence of chemical substance/The level of expressed mRNA in the absence of chemical substance (yeast gene YLR354C, cells incubated two hours with the chemical substance): 1.4 | The level of expressed mRNA in the presence of chemical substance/The level of expressed mRNA in the absence of chemical substance (yeast gene YLR377C, cells incubated two hours with the chemical substance): 0.7 | The level of expressed mRNA in the presence of chemical substance/The level of expressed mRNA in the absence of chemical substance (yeast gene YLR395C, cells incubated two hours with the chemical substance): 1.0 | The level of expressed mRNA in the presence of chemical substance/The level of expressed mRNA in the absence of chemical substance (yeast gene YML087C): 1.3 | The level of expressed mRNA in the presence of chemical substance/The level of expressed mRNA in the absence of chemical substance (yeast gene YML120C, cells incubated two hours with the chemical substance): 0.9 | The level of expressed mRNA in the presence of chemical substance/The level of expressed mRNA in the absence of chemical substance (yeast gene YML129C, cells incubated two hours with the chemical substance): 1.2 | The level of expressed mRNA in the presence of chemical substance/The level of expressed mRNA in the absence of chemical substance (yeast gene YMR073C, cells incubated two hours with the chemical substance): 1.1 | The level of expressed mRNA in the presence of chemical substance/The level of expressed mRNA in the absence of chemical substance (yeast gene YMR118C): 1.0 | The level of expressed mRNA in the presence of chemical substance/The level of expressed mRNA in the absence of chemical substance (yeast gene YMR205C, cells incubated two hours with the chemical substance): 0.7 | The level of expressed mRNA in the presence of chemical substance/The level of expressed mRNA in the absence of chemical substance (yeast gene YMR261C, cells incubated two hours with the chemical substance): 0.7 | The level of expressed mRNA in the presence of chemical substance/The level of expressed mRNA in the absence of chemical substance (yeast gene YMR267W, cells incubated two hours with the chemical substance, 25° C., YPD medium): 1.5 | The level of expressed mRNA in the presence of chemical substance/The level of expressed mRNA in the absence of chemical substance (yeast gene YMR323W, cells incubated two hours with the chemical substance): 0.8 | The level of expressed mRNA in the presence of chemical substance/The level of expressed mRNA in the absence of chemical substance (yeast gene YNL071W): 0.9 | The level of expressed mRNA in the presence of chemical substance/The level of expressed mRNA in the absence of chemical substance (yeast gene YNL202W, cells incubated two hours with the chemical substance): 1.2 | The level of expressed mRNA in the presence of chemical substance/The level of expressed mRNA in the absence of chemical substance (yeast gene YNL241C): 0.9 | The level of expressed mRNA in the presence of chemical substance/The level of expressed mRNA in the absence of chemical substance (yeast gene YNL331C): 13.1 | The level of expressed mRNA in the presence of chemical substance/The level of expressed mRNA in the absence of chemical substance (yeast gene YOL086C, cells incubated two hours with the chemical substance): 0.8 | The level of expressed mRNA in the presence of chemical substance/The level of expressed mRNA in the absence of chemical substance (yeast gene YOL165C): 17.8 | The level of expressed mRNA in the presence of chemical substance/The level of expressed mRNA in the absence of chemical substance (yeast gene YOR142W, cells incubated two hours with the chemical substance): 0.8 | The level of expressed mRNA in the presence of chemical substance/The level of expressed mRNA in the absence of chemical substance (yeast gene YOR178C, cells incubated two hours with the chemical substance): 0.9 | The level of expressed mRNA in the presence of chemical substance/The level of expressed mRNA in the absence of chemical substance (yeast gene YOR388C, cells incubated two hours with the chemical substance): 0.7 | The level of expressed mRNA in the presence of chemical substance/The level of expressed mRNA in the absence of chemical substance (yeast gene YPL031C, cells incubated two hours with the chemical substance): 1.0 | The level of expressed mRNA in the presence of chemical substance/The level of expressed mRNA in the absence of chemical substance (yeast gene YPL061W, cells incubated two hours with the chemical substance): 0.8 | The level of expressed mRNA in the presence of chemical substance/The level of expressed mRNA in the absence of chemical substance (yeast gene YPL088W): 1.9 | The level of expressed mRNA in the presence of chemical substance/The level of expressed mRNA in the absence of chemical substance (yeast gene YPL171C): 20.5 | The level of expressed mRNA in the presence of chemical substance/The level of expressed mRNA in the absence of chemical substance (yeast gene YPL240C): 1.2 | The level of expressed mRNA in the presence of chemical substance/The level of expressed mRNA in the absence of chemical substance (yeast gene YPL262W, cells incubated two hours with the chemical substance): 1.0 | The level of expressed mRNA in the presence of chemical substance/The level of expressed mRNA in the absence of chemical substance (yeast gene YPL275W, cells incubated two hours with the chemical substance): 1.0 | The level of expressed mRNA in the presence of chemical substance/The level of expressed mRNA in the absence of chemical substance (yeast gene YPL276W, cells incubated two hours with the chemical substance): 0.9 | The level of expressed mRNA in the presence of chemical substance/The level of expressed mRNA in the absence of chemical substance (yeast gene YPR048W, cells incubated two hours with the chemical substance): 1.5 | The level of expressed mRNA in the presence of chemical substance/The level of expressed mRNA in the absence of chemical substance (yeast gene YPR184W, cells incubated two hours with the chemical substance): 0.7
